The nature of data set [1]: Body weight gain and food/water intake in rats, 21 days. The conditions noted are these: 5.0, 20.0 and 90.0 mg/kg body weight, 21 days, vs DMSO control. In kind it is in vivo, adult male Long-Evans rats. On the procedure: (§1) Adult male Long-Evans rats were administered 4AR for 21 days. DMSO served as the control and 4AR was dissolved into DMSO at the following concentrations: 5.0 mg/kg body weight, 20.0 mg/kg body weight and 90.0 mg/kg body weight (n=12 per group).
After 10 days of receiving the treatments there was a significant decrease in body weight gain, by an average of approximately 17 grams, in the 90.0 mg/kg vs. the control values (525.0+5.1 vs. 542.1+6.2 grams, respectively. After 20 days on the treatments there was a significant decrease in body weight gain, by approximately 14 grams, in the 20.0 mg/kg vs. control values (566.0+4.7 vs. 551.8+3.7 grams). Finally, there was an even greater significant decrease in body weight gain between the 90.0 mg/kg vs. control values after 20 days on the treatments representing a 54.2 grams decrease (or 566.0+4.7 vs. 511.8+4.1 grams).

In a further data set the test system is Type IV collagen alpha 1. The experiment in a line: Gene array qPCR, human dermal equivalent: Type IV collagen alpha 1. In kind it is cell-based. The conditions noted are these: 1.0% 4AR in DMSO, human skin equivalent, 24 hours, mRNA by qPCR. The text has this:
(§2) In this gene array experiment, we examined the ability of 4AR at a one percent concentration in DMSO (where 100% DMSO served as the vehicle) to either stimulate or inhibit several important genes and quantify directly the transcribed messenger RNA (mRNA) levels by Taqman real time PCR. The test material was placed onto a biological barrier (human dermal equivalent) using a MatTek “ready-to-use” in vitro organotypic tissue equivalent, based on well-documented and validated protocols, using the EpiDerm™ Model EPI-200 Kit. The MatTek kits uses normal (non-transformed) donated human cells as the basis for all of its tissue equivalents. These cells are grown (cultured) in standard Millipore Millicell™ Single Well Tissue Culture Plate Inserts at the air liquid interface or ALI. Apical (top) surface of tissue is exposed to air allowing for direct application of test articles. […] Once the 4 AR test material penetrated the human skin barrier equivalent the gene chip was activated and subsequently mRNA levels were quantified and the results represent stimulation or inhibition of a specific gene.
(§3) To investigate the effects of 4AR on the expression of genes associated with the extracellular matrix (ECM) of the skin, qPCR experiments were conducted using the tissue cultures (model system described above) with subsequent quantification of mRNA levels from […] tissue/cells. […]
On the technique in general: Real-time PCR tracks product formation cycle by cycle.

The subject of data set [2] is HBEGF (Heparin-binding EGF-like growth factor). The experiment in a line: Gene array qPCR, human dermal equivalent: HBEGF. In kind it is cell-based. The conditions noted are these: 1.0% 4AR in DMSO, human skin equivalent, 24 hours, mRNA by qPCR.
Description: as §2, §3

Data set [3] concerns TGF (transforming growth factor) beta. The experiment in a line: Gene array qPCR, human dermal equivalent: TGF beta. The class given is cell-based. As to conditions: 1.0% 4AR in DMSO, human skin equivalent, 24 hours, mRNA by qPCR.
Description: as §2, §3

For the next data set, the system named is Laminin 1B. Briefly: Gene array qPCR, human dermal equivalent: Laminin 1B. The class given is cell-based. As to conditions: 1.0% 4AR in DMSO, human skin equivalent, 24 hours, mRNA by qPCR.
Description: as §2, §3

In data set [4] the target is T1, prostate type I 5α-reductase enzyme (Rattus norvegicus, UniProt P24008).
T1 construct: from tissue; host or cells: prostate of adult male Long-Evans rats dosed with 4AR for 21 days
T1 sequence (P24008 1-259): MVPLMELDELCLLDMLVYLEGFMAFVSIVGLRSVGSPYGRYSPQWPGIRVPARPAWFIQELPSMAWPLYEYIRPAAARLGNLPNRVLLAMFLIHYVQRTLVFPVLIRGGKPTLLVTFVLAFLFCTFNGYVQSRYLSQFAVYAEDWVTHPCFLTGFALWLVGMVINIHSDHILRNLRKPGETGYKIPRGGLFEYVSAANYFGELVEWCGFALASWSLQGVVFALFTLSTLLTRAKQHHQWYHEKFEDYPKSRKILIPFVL
Briefly: Prostate 5α-reductase enzyme activity of treated rats. The class given is in vivo. The conditions noted are these: DMSO controls 8.7 + 0.6. On the procedure: as §1
Since, the 5a-reductase enzyme (which converts testosterone to 5a-dihydrotestosterone) is important in prostate health in reference to benign prostatic hyperplasia (BPH) and the treatment and prevention of prostate cancer, we determined if prostate type I 5α-reductase enzyme activity was impacted by these treatments by quantifying the enzymatic rates of each animal as described above (in this study there were approximately 10 animals per treatment group).

For a further data set, the system named is COX 2 (PTGS2). The experiment in a line: Gene array qPCR, human dermal equivalent: COX 2. The class given is cell-based. As to conditions: 1.0% 4AR in DMSO, human skin equivalent, 24 hours, mRNA by qPCR.
Description: as §2, §3

Another data set has as its system Nerve growth factor. The experiment in a line: Gene array qPCR, human dermal equivalent: Nerve growth factor. In kind it is cell-based. As to conditions: 1.0% 4AR in DMSO, human skin equivalent, 24 hours, mRNA by qPCR.
Description: as §2, §3

Data set [5] has as its system human dermal monolayer fibroblasts. The experiment in a line: Collagen deposition by ELISA for Human Type I collagen C-terminal propeptide. In kind it is cell-based. As to conditions: approximately 9 μM, 48 hours, vehicle 0.1% DMSO. On the procedure:
4′-Acetoxy-resveratrol was tested to determine whether it can stimulate collagen deposition in human monolayer dermal fibroblasts in the following examples. In this assay, we first determined the toxicity of the test materials (untreated cells, positive control-ascorbate, vehicle=0.1% DMSO, and a range of the 4′-acetoxy-resveratrol molecule, from approximately 10 nM to 10 μM).
The human dermal monolayer fibroblasts were exposed to the test materials for approximately 48 hours. Thereafter, the samples were processed for MTT and collagen deposition, etc.
Collagen deposition by ELISA for Human Type I collagen C-terminal propeptide was determined. Dermal fibroblasts synthesize primarily type I collagen, and the cleavage of the C-terminal propeptide is required for deposition into fibrils within the extracellular matrix. […] The amount of cleaved propeptide is directly proportional to the amount of type I collagen deposited, and can be precisely quantified using purified standards and a commercial ELISA kit (Takara Mirus, Inc., Cat. # TAK-MK-101). After 48 hours in the presence of the test materials or controls, culture medium supernatants were removed and immediately analyzed using the ELISA kit according to manufacturer's instructions using a Molecular Devices Vmax plate 96 well plate reader and SoftMax software. […]
On the technique in general: In an ELISA, binding on a coated surface is turned into a signal by an enzyme label.

Data set [6] deals with Procollagen III (alpha 1). Briefly: Gene array qPCR, human dermal equivalent: Procollagen III. The class given is cell-based. The conditions noted are these: 1.0% 4AR in DMSO, human skin equivalent, 24 hours, mRNA by qPCR.
Description: as §2, §3

Data set [7] deals with S100 Calcium binding protein A9. Briefly: Gene array qPCR, human dermal equivalent: S100 A9. In kind it is cell-based. As to conditions: 1.0% 4AR in DMSO, human skin equivalent, 24 hours, mRNA by qPCR.
Description: as §2, §3

In another data set the test system is Elastin. Briefly: Gene array qPCR, human dermal equivalent: Elastin. As to conditions: 1.0% 4AR in DMSO, human skin equivalent, 24 hours, mRNA by qPCR. The class given is cell-based.
Description: as §2, §3

For data set [8], the system named is TNFRSF1A (Tumor necrosis factor receptor superfamily, member 1A). The experiment in a line: Gene array qPCR, human dermal equivalent: TNFRSF1A. As to conditions: 1.0% 4AR in DMSO, human skin equivalent, 24 hours, mRNA by qPCR. The class given is cell-based.
Description: as §2, §3

Data set [9] relates to Superoxide dismutase 1, soluble. Briefly: Gene array qPCR, human dermal equivalent: SOD1. The conditions noted are these: 1.0% 4AR in DMSO, human skin equivalent, 24 hours, mRNA by qPCR. The class given is cell-based.
Description: as §2, §3

The test system of data set [10] is Superoxide dismutase 2, mitochondrial. Briefly: Gene array qPCR, human dermal equivalent: SOD2. The class given is cell-based. The conditions noted are these: 1.0% 4AR in DMSO, human skin equivalent, 24 hours, mRNA by qPCR.
Description: as §2, §3

A further data set concerns Type IV collagen alpha 2. The experiment in a line: Gene array qPCR, human dermal equivalent: Type IV collagen alpha 2. The class given is cell-based. The conditions noted are these: 1.0% 4AR in DMSO, human skin equivalent, 24 hours, mRNA by qPCR.
Description: as §2, §3

For another data set, the system named is SIRT1 (Sirtuin 1). Briefly: Gene array qPCR, human dermal equivalent: SIRT1. The class given is cell-based. As to conditions: 1.0% 4AR in DMSO, human skin equivalent, 24 hours.
Description: as §2, §3

The test system of another data set is Protein Kinase C alpha. The experiment in a line: Gene array qPCR, human dermal equivalent: Protein Kinase C alpha. In kind it is cell-based. As to conditions: 1.0% 4AR in DMSO, human skin equivalent, 24 hours, mRNA by qPCR.
Description: as §2, §3

Data set [11] deals with Tissue inhibitor of metalloproteinases 1. Briefly: Gene array qPCR, human dermal equivalent: TIMP1. The class given is cell-based. The conditions noted are these: 1.0% 4AR in DMSO, human skin equivalent, 24 hours, mRNA by qPCR.
Description: as §2, §3

A further data set relates to Desmoglein 3. The experiment in a line: Gene array qPCR, human dermal equivalent: Desmoglein 3. As to conditions: 1.0% 4AR in DMSO, human skin equivalent, 24 hours, mRNA by qPCR. In kind it is cell-based.
Description: as §2, §3

The next data set concerns Metallothionein 1. Briefly: Gene array qPCR, human dermal equivalent: Metallothionein 1. In kind it is cell-based. The conditions noted are these: 1.0% 4AR in DMSO, human skin equivalent, 24 hours, mRNA by qPCR.
Description: as §2, §3

The test system of data set [12] is FosB (FBJ murine osteosarcoma viral oncogene homolog B). The experiment in a line: Gene array qPCR, human dermal equivalent: FosB. The class given is cell-based. As to conditions: 1.0% 4AR in DMSO, human skin equivalent, 24 hours, mRNA by qPCR.
Description: as §2, §3

The structures appear in SMILES notation. Marks after values point to notes of the source that are not given here.

`CC(=O)Oc1ccc(C=Cc2cc(O)cc(O)c2)cc1` [4AR, 3,5-dihydroxy-4′-acetoxy stilbene]: in [1], the “food/water intake among the treatment groups” value is reported as “no significant differences”. The “Type IV collagen alpha 1 increased by” value with Type IV collagen alpha 1 is on record as 1.7-fold. Besides, the “HBEGF increased by” value in [2] was 1.9-fold. Further, the “TGF beta increased by” value in data set [3] was 2.0-fold. The “Laminin 1B increased by” value with Laminin 1B is reported as 1.4-fold with. Besides, the 5α-reductase enzyme activity is given as 4.6 + 0.4* pmol/hour incubation/mg of protein in data set [4] (5 mg/kg body weight), 3.3 + 0.3* pmol/hour incubation/mg of protein in data set [4] (20 mg/kg body weight) and 2.0 + 0.2* pmol/hour incubation/mg of protein in data set [4] (90 mg/kg body weight). Further, in the data set with COX 2 (PTGS2), the “COX 2 decreased by” value is 1.7-fold. Also, the “Nerve growth factor increased by” value in the data set on Nerve growth factor is listed as 6.7-fold. Besides, the “increase of collagen deposition compared to vehicle control” value in data set [5] amounted to 65%. Also, the “Procollagen III increased by” value in data set [6] is listed as “by 2.2-fold”. Further, the “S100 Calcium binding protein A9 decreased by” value in data set [7] is reported as 1.6-fold. The “Elastin increased by” value in the data set on Elastin is given as 2.8-fold. The “TNFRSF1A decreased by” value in data set [8] is 1.4-fold. Further, in data set [9], the “Superoxide dismutase 1, soluble increased by” value was 1.6-fold. Besides, in data set [10], the “Superoxide dismutase 2, mitochondrial increased by” value was 1.7-fold. Also, the “IV collagen alpha 2 increased by” value with Type IV collagen alpha 2 was 1.8-fold. For the same compound, in the data set on SIRT1 (Sirtuin 1), the “SIRT1 mRNA expression increased by” value is recorded as 3.3-fold. Further, in the data set on Protein Kinase C alpha, the “Protein Kinase C alpha increased by” value is 2.7-fold. Moreover, in data set [11], the “Tissue inhibitor of metalloproteinases 1 increased by” value is recorded as 2.5-fold. Further, the “Desmoglein 3 decreased by” value with Desmoglein 3 is “by 1.9-fold”. The “Metallothionein 1 increased by” value in the data set on Metallothionein 1 is 64.0-fold. In addition, the “FosB increased by” value in data set [12] is on record as 8.2-fold.

The record behind these values is US20130123357A1, “Methods for Providing Enhanced Resveratrol Activity Using 4-Acetoxy-Resveratrol” (BRIGHAM YOUNG UNIVERSITY, priority 2010, published 2013).
